Where a SMILES comes first, the peptide text is derived from it. Where no end group is shown, it is not given here. [ ]: non-standard residue; d: D form. The star is where a group is joined. Myristoyl = CCCCCCCCCCCCCC(=O)*
Legend:
U937 cells = experiment: PMA-stimulated lysozyme secretion by U937 cells; format: cell-based, human; details: 50 μM test peptide, two hour incubation with 100 nM PMA; U937 cells
Method: (§1) Three types of human leukocyte cell lines, specifically the promyelocytic cell line HL-60 clone 15, the monocytic cell line U937, and the lymphocyte natural killer cell line NK-92 were purchased from American Type Culture Collection (ATCC; Rockville, MD). HL-60 clone 15 cells (ATCC CRL-1964) were maintained in medium consisting of RPMI 1640 with L-glutamine supplemented with 10% heat-inactivated fetal bovine serum (Gibco; Invitrogen Co., Carlsbad, CA), 50 IU/ml penicillin, 50 μg/mL streptomycin, and 25 mM HEPES buffer, pH 7.8, at 37° C. in an atmosphere containing 5% CO2. Final differentiation to an eosinophil-like phenotype was initiated by culturing cells at 5×10^5 cells/ml in the above medium containing 0.5 mM butyric acid (Sigma-Aldrich Co.) for 5 days as previously described (Tiffany H L, Li F, Rosenberg H F. Hyperglycosylation of eosinophil ribonucleases in a promyelocytic leukemia cell line and in differentiated peripheral blood progenitor cells. J Leukoc Biol 1995; 58:49-54; Tiffany H L, Alkhatib G, Combadiere C, Berger E A, Murphy P M. CC chemokine receptors 1 and 3 are differentially regulated by IL-5 during maturation of eosinophilic HL-60 cells. J Immunol 1998; 160:1385-1392). U937 cells (ATCC CRL-1593.2) were grown at 37° C. in an atmosphere of 5% CO2 in complete medium consisting of RPMI 1640 with L-glutamine supplemented with 10% FBS, 50 IU/ml penicillin, and 50 μg/mL streptomycin. NK-92 cells (ATCC CRL-2407) were maintained in alpha-MEM medium (Sigma-Aldrich Co.) supplemented with 20% FBS, 100 U/ml of interleukin-2 (IL-2) (Chemicon International, Inc., Temecula, CA), 5×10^−5 M of 2-mercaptoethanol, 50 IU/mL penicillin, and 50 μg/ml streptomycin at 37° C. in an atmosphere containing 5% CO2. Cell morphology was judged by assessment of Wright-Giemsa-stained cells. Viability of cells harvested for experiments was assessed by trypan blue exclusion and populations of cells with viability >95% were used.
(§2) HL-60 clone 15, U937, and NK-92 cells were washed and resuspended at 2.5×10^6 cells/ml in phenol red-free RPMI-1640 (Cellgro; Mediatech, Inc.) for all degranulation assays. Aliquots of cells in 15 ml tubes were preincubated with indicated concentrations of MANS, RNS, or a test peptide for 10 min at 37° C. The cells then were stimulated with PMA for up to 2 hr. A control reference (PMA control reference) was established for each cell type using HL-60 clone 15, U937, and NK-92 cells, respectively, which were washed and resuspended at 2.5×10^6 cells/ml in phenol red-free RPMI-1640 and stimulated with PMA but in the absence of MANS, RNS, or a test peptide for the same time periods. The reaction was terminated by placing tubes on ice and centrifuging cells at 400 g for 5 min at 4° C.
(§3) For measurements of released MPO from neutrophils and released lysozyme from U937 cells, we were able to quantify secretion by using as standards human MPO and egg white […], respectively. For released EPO from HL-60 clone 15 cells and for released granzyme from NK-92 cells, no standards were available to use for quantification. […] To measure intracellular EPO in HL-60 clone 15 cells and intracellular granzyme in NK-92 cells, appropriate aliquots of 0.1% triton X-100-lysed cells were taken for quantification of intracellular granule proteins as described below. All treatments were expressed as percentage of control to minimize variability between cultures.
Lysozyme secreted by U937 cells was measured using a spectrophotometric assay as described previously (Balboa M A, Saez Y, Balsinde J. Calcium-independent phospholipase A2 is required for lysozyme secretion in U937 promonocytes. J Immunol 2003; 170:5276-5280) with slight modification. Thus, 100 μL of sample was mixed with 100 μL of a Micrococcus lysodeikticus (Sigma-Aldrich Co.) suspension (0.3 mg/ml in 0.1 M sodium phosphate buffer, pH 7.0) in a 96-well microplate. The decrease in absorbance at 450 nm was measured at room temperature. […]

human neutrophils = experiment: PMA-stimulated MPO release from isolated human neutrophils (TMB assay); format: cell-based; details: 100 μM test peptide, two hour incubation with 100 nM PMA; human neutrophils
Source text: Human neutrophil isolation—These studies were approved by the human studies Institutional Review Board (IRB). Human neutrophils were isolated as previously described (see Takashi S, OkuboY, Horie S. Contribution of CD54 to human eosinophil and neutrophil superoxide production. J Appl Physiol 2001; 91:613-622) with slight modifications. Briefly, heparinized venous blood was obtained from normal healthy volunteers, diluted with RPMI-1640 (Cellgro; Mediatech, Inc., Herndon, VA) at a ratio of 1:1, layered onto a Histopaque (density, 1.077 g/ml; Sigma-Aldrich Co., St. Louis, MO) and centrifuged at 400 g for 20 min at 4° C. The supernatant and mononuclear cells at the interface were carefully removed, and erythrocytes in the sediment were lysed in chilled distilled water. Isolated granulocytes were washed twice with Hanks' balanced salts solution (HBSS) and resuspended in HBSS on ice.
Measurement of released neutrophil MPO activity—For measurement of MPO release, purified human neutrophils suspended in HBSS were aliquoted at 4×10^6 cells/ml in 15 ml tubes and preincubated with either 50 or 100 μM of MANS, RNS, or one of the peptides of invention for 10 min at 37° C. The cells then were stimulated with 100 nM phorbol 12-myristate 13-acetate (PMA) for up to 3 hrs. A control reference (PMA control reference) was established using purified human neutrophils suspended in HBSS aliquoted at 4×10^6 cells/ml in 15 mL tubes and stimulated with 100 nM phorbol 12-myristate 13-acetate (PMA) in the absence of a test peptide for the same time periods. The reaction was terminated by placing the tubes on ice and centrifugation at 400 g for 5 min at 4° C.
MPO activity in the cell supernatant was assayed using tetramethylbenzidine (TMB) based on a previously established technique (Abdel-Latif D, Steward M, Macdonald D L, Francis G A., Dinauer M C, Lacy P. Rac2 is critical for neutrophil primary granule exocytosis. Blood 2004; 104:832-839). Briefly, 100 μL of TMB substrate solution was added to 50 μL of cell supernatants or standard human MPO (EMD Biosciences, Inc., San Diego, CA) in a 96-well microplate followed by incubation at room temperature for 15 min. The reaction was terminated by addition of 50 μL of 1M […] and absorbance was read at 450 nm in a spectrophotometric microplate reader (VERSA max, Molecular Devices, Sunnyvale, CA).
The data presented in the table below represents 100 μM concentration of test peptides and a two hour incubation with 100 nM PMA.

HL-60 clone 15 cells = experiment: PMA-stimulated EPO release from HL-60 clone 15 cells; format: cell-based, human; details: 50 μM test peptide, two hour incubation with 100 nM PMA; HL-60 clone 15 cells
Method: as §1, §2, §3
EPO activity released by HL-60 clone 15 cells was assayed using TMB according to a previously established technique (Lacy P, Mahmudi-Azer S, Bablitz B, Hagen S C, Velazquez J R, Man S F, Moqbel R. Rapid mobilization of intracellularly stored RANTES in response to interferon-gamma in human eosinophils. Blood 1999; 94:23-32). Thus, 100 μL of TMB substrate solution was added to 50 μL=microliters) of sample in a 96-well microplate and incubated at room temperature for 15 min (min=minutes). […]

[1] = Qualitative solubility of peptides in 0.5 N saline, pH 6.5

Compound | % Inhibition Lysozyme (U937 cells) [%] | % Inhibition MPO (human neutrophils) [%] | % Inhibition EPO (HL-60 clone 15 cells) [%] | solubility [1] [mg/mL]
CC(=O)NCC(=O)N[C@H](C)C(=O)N[C@H](CCC(N)=O)C(=O)N[C@H](Cc1ccccc1)C(=O)N[C@H](CO)C(=O)N[C@H](CCCCN)C(=O)N[C@@H](C(=O)N[C@H](C)C(=O)N[C@H](C)C(=O)N[C@H](CCCCN)C(=O)O)[C@H](C)O [Ac-GAQFSKTAAK (all d), GAQFSKTAAK (all d)] (Ac-G[dA][dQ][dF][dS][dK][dT][dA][dA][dK]-OH; C-terminus assumed) | 8.9 | 40.0 | 26.9 | > 100
CCCCCCCCCCCCCC(=O)NCC(=O)N[C@@H](C)C(=O)N[C@@H](CCC(N)=O)C(=O)N[C@@H](Cc1ccccc1)C(=O)N[C@@H](CO)C(=O)N[C@@H](CCCCN)C(=O)N[C@H](C(=O)N[C@@H](C)C(=O)N[C@@H](C)C(=O)N[C@@H](CCCCN)C(=O)NCC(=O)N[C@@H](CCC(=O)O)C(=O)O)[C@@H](C)O [MA-GAQFSKTAAKGE, GAQFSKTAAKGE] (Myristoyl-GAQFSKTAAKGE-OH; C-terminus assumed) | 85.2 | 43.2 | 25.2 | > 2
CCCCCCCCCCCCCC(=O)NCC(=O)N[C@@H](C)C(=O)N[C@@H](CCC(N)=O)C(=O)N[C@@H](Cc1ccccc1)C(=O)N[C@@H](CO)C(=O)N[C@@H](CCCCN)C(=O)N[C@H](C(=O)N[C@@H](CCCCN)C(=O)N[C@@H](C)C(=O)N[C@@H](CCCCN)C(=O)NCC(=O)N[C@@H](CCC(=O)O)C(=O)O)[C@@H](C)O [MA-GAQFSKTKAKGE, GAQFSKTKAKGE] (Myristoyl-GAQFSKTKAKGE-OH; C-terminus assumed) |  | 65.2 |  | > 3
Ac-AQFSKTAAKGE-NH2 [Ac-AQFSKTAAKGE-NH2, AQFSKTAAKGE] | 51.8 |  | 42.8 | > 90
Ac-FSKTAAKGE-NH2 [Ac-FSKTAAKGE-NH2, FSKTAAKGE] | 56.7 |  | 25.3 | > 100
Ac-GAQFSATAAA [Ac-GAQFSATAAA, GAQFSATAAA] | 3.2 |  | 35.7 | < 10
Ac-GAQFSKTA [Ac-GAQFSKTA, GAQFSKTA] | 0 |  | 0 | > 200
Ac-GAQFSKTAA [Ac-GAQFSKTAA, GAQFSKTAA] | 28.9 |  | 33.3 | > 20
Ac-GAQFSKTAAA [Ac-GAQFSKTAAA, GAQFSKTAAA] | 28.3 |  | 55.2 | > 100
Ac-GAQFSKTAAAGE [Ac-GAQFSKTAAAGE, GAQFSKTAAAGE] | 37.2 |  | 55.8 | > 50
Ac-GAQFSKTAAKGA [Ac-GAQFSKTAAKGA, GAQFSKTAAKGA] | 24.1 |  | 40.9 | > 50
Ac-GAQFSKTAAKGE [Ac-GAQFSKTAAKGE, GAQFSKTAAKGE] | 43.3 |  | 46.7 | > 100
Ac-GAQFSKTAAKGE-NH2 [Ac-GAQFSKTAAKGE-NH2, GAQFSKTAAKGE] | 38.6 | 26.5 | 24.7 | > 60
Ac-KTAAKGE-NH2 [Ac-KTAAKGE-NH2, KTAAKGE] | 24.3 |  | 0 | > 200
Ac-QFSKTAAKGE-NH2 [Ac-QFSKTAAKGE-NH2, QFSKTAAKGE] | 60.7 |  | 15.7 | > 150
Ac-SKTAAKGE-NH2 [Ac-SKTAAKGE-NH2, SKTAAKGE] | 0 |  | 42.2 | > 200
Ac-TAAKGEAA [Ac-TAAKGEAA, TAAKGEAA] | 0.5 |  | 40.4 | > 230
H-GAQFSKTAAKGE [peptide 79, GAQFSKTAAKGE] |  | 27.9 |  | 
